Measured values: PubChem BioAssay AID2060604 (Molecular Pharmacology Branch, DTP, NCI, 2025)

System: 379773-124-R-J2-PDC complex spheroids, viability % test/control
Experiment: Anticancer human tumor 379773-124-R-J2-PDC patient-derived endometrial carcinoma cell line growth inhibition [CLK]
Details: for IC50: curve of first compound; for viability, T/C: stronger effect = lower value
How it was run: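 Patient-derived tumor cells grown as complex spheroids with HUVEC endothelial cells and mesenchymal stem cells, treated with drug combinations. Concentrations descend in half-log steps from near clinical Cmax, or from 10 microM if Cmax unknown.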

[1] = second compound 0.0316 µM, first compound 0.0316 µM
[2] = second compound 0.0316 µM, first compound 0.1 µM
[3] = second compound 0.1 µM, first compound 0.0316 µM
[4] = second compound 0.1 µM, first compound 0.1 µM
[5] = second compound 0.316 µM, first compound 0.0316 µM
[6] = second compound 0.316 µM, first compound 0.1 µM
[7] = second compound 1 µM, first compound 0.0316 µM
[8] = second compound 1 µM, first compound 0.1 µM
[9] = second compound 3.16 µM, first compound 0.0316 µM
[10] = second compound 3.16 µM, first compound 0.1 µM
[11] = second compound 10 µM, first compound 0.0316 µM
[12] = second compound 10 µM, first compound 0.1 µM
[13] = second compound 0.0316 µM, first compound 0.316 µM
[14] = second compound 0.0316 µM, first compound 1 µM
[15] = second compound 0.0316 µM, first compound 3.16 µM
[16] = second compound 0.0316 µM, first compound 10 µM
[17] = second compound 0.1 µM, first compound 0.316 µM
[18] = second compound 0.1 µM, first compound 1 µM
[19] = second compound 0.1 µM, first compound 3.16 µM
[20] = second compound 0.1 µM, first compound 10 µM
[21] = second compound 0.316 µM, first compound 0.316 µM
[22] = second compound 0.316 µM, first compound 1 µM
[23] = second compound 0.316 µM, first compound 3.16 µM
[24] = second compound 0.316 µM, first compound 10 µM
[25] = second compound 1 µM, first compound 0.316 µM
[26] = second compound 1 µM, first compound 1 µM
[27] = second compound 1 µM, first compound 3.16 µM
[28] = second compound 1 µM, first compound 10 µM
[29] = second compound 3.16 µM, first compound 0.316 µM
[30] = second compound 3.16 µM, first compound 1 µM
[31] = second compound 3.16 µM, first compound 3.16 µM
[32] = second compound 3.16 µM, first compound 10 µM
[33] = second compound 10 µM, first compound 0.316 µM
[34] = second compound 10 µM, first compound 1 µM
[35] = second compound 10 µM, first compound 3.16 µM
[36] = second compound 10 µM, first compound 10 µM
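Further: compound exposure lasted seven days before the viability readout.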
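Wherever viability, T/C is given: 100% = DMSO vehicle control wells.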

SMILES: Cn1ncnc1[C@H]1c2n[nH]c(=O)c3cc(F)cc(c23)N[C@@H]1c1ccc(F)cc1 + CN1CCN(c2cc(C(=O)Nc3cc4cc(-c5cnn(C)c5)ccc4cn3)ccn2)CC1
- IC50 (second compound 0.0316 µM): 42.6 nM
- IC50 (second compound 0.1 µM): 22.2 nM
- IC50 (second compound 0.316 µM): < 0.316 nM
- IC50 (second compound 1 µM): < 0.316 nM
- IC50 (second compound 3.16 µM): < 0.316 nM
- IC50 (second compound 10 µM): < 0.316 nM
- viability, T/C (second compound 0.0316 µM, first compound 0.000316 µM): 87.8%
- viability, T/C (second compound 0.0316 µM, first compound 0.001 µM): 96.2%
- viability, T/C (second compound 0.0316 µM, first compound 0.00316 µM): 80.3%
- viability, T/C (second compound 0.0316 µM, first compound 0.01 µM): 92.6%
- viability, T/C [1]: 55.6%
- viability, T/C [2]: 34%
- viability, T/C (second compound 0.1 µM, first compound 0.000316 µM): 87%
- viability, T/C (second compound 0.1 µM, first compound 0.001 µM): 82.6%
- viability, T/C (second compound 0.1 µM, first compound 0.00316 µM): 79.1%
- viability, T/C (second compound 0.1 µM, first compound 0.01 µM): 64.1%
- viability, T/C [3]: 43.6%
- viability, T/C [4]: 27%
- viability, T/C (second compound 0.316 µM, first compound 0.000316 µM): 24.1%
- viability, T/C (second compound 0.316 µM, first compound 0.001 µM): 29.2%
- viability, T/C (second compound 0.316 µM, first compound 0.00316 µM): 17.9%
- viability, T/C (second compound 0.316 µM, first compound 0.01 µM): 21.4%
- viability, T/C [5]: 15.2%
- viability, T/C [6]: 12.3%
- viability, T/C (second compound 1 µM, first compound 0.000316 µM): 0.11%
- viability, T/C (second compound 1 µM, first compound 0.001 µM): 0.8%
- viability, T/C (second compound 1 µM, first compound 0.00316 µM): 0.33%
- viability, T/C (second compound 1 µM, first compound 0.01 µM): 0.19%
- viability, T/C [7]: 0.06%
- viability, T/C [8]: 0.07%
- viability, T/C (second compound 3.16 µM, first compound 0.000316 µM): 1.37%
- viability, T/C (second compound 3.16 µM, first compound 0.001 µM): 0.24%
- viability, T/C (second compound 3.16 µM, first compound 0.00316 µM): 0.23%
- viability, T/C (second compound 3.16 µM, first compound 0.01 µM): 0.07%
- viability, T/C [9]: 1.63%
- viability, T/C [10]: 0.08%
- viability, T/C (second compound 10 µM, first compound 0.000316 µM): 1.25%
- viability, T/C (second compound 10 µM, first compound 0.001 µM): 0.1%
- viability, T/C (second compound 10 µM, first compound 0.00316 µM): 0.49%
- viability, T/C (second compound 10 µM, first compound 0.01 µM): 0.52%
- viability, T/C [11]: 0.29%
- viability, T/C [12]: 0.13%

SMILES: Nc1ccn(C2OC(CO)C(O)C2(F)F)c(=O)n1 (stereo unspecified) + CN1CCN(c2cc(C(=O)Nc3cc4cc(-c5cnn(C)c5)ccc4cn3)ccn2)CC1
- IC50 (second compound 0.0316 µM): < 31.6 nM
- IC50 (second compound 0.1 µM): < 31.6 nM
- IC50 (second compound 0.316 µM): < 31.6 nM
- IC50 (second compound 1 µM): < 31.6 nM
- IC50 (second compound 3.16 µM): < 31.6 nM
- IC50 (second compound 10 µM): < 31.6 nM
- viability, T/C [1]: 10.9%
- viability, T/C [2]: 5.93%
- viability, T/C [13]: 5%
- viability, T/C [14]: 6.45%
- viability, T/C [15]: 6.59%
- viability, T/C [16]: 3.28%
- viability, T/C [3]: 10.4%
- viability, T/C [4]: 5.09%
- viability, T/C [17]: 4.66%
- viability, T/C [18]: 5.3%
- viability, T/C [19]: 4.72%
- viability, T/C [20]: 1.97%
- viability, T/C [5]: 7.96%
- viability, T/C [6]: 4.03%
- viability, T/C [21]: 2.64%
- viability, T/C [22]: 2.49%
- viability, T/C [23]: 1.51%
- viability, T/C [24]: 0.83%
- viability, T/C [7]: 0.1%
- viability, T/C [8]: 0.12%
- viability, T/C [25]: 0.11%
- viability, T/C [26]: 0.05%
- viability, T/C [27]: 1.02%
- viability, T/C [28]: 0.05%
- viability, T/C [9]: 0.08%
- viability, T/C [10]: 0.11%
- viability, T/C [29]: 0.12%
- viability, T/C [30]: 0.07%
- viability, T/C [31]: 0.82%
- viability, T/C [32]: 0.09%
- viability, T/C [11]: 0.18%
- viability, T/C [12]: 1.56%
- viability, T/C [33]: 0.87%
- viability, T/C [34]: 1.76%
- viability, T/C [35]: 0.56%
- viability, T/C [36]: 0.13%

SMILES: O=C(c1cc(Cc2n[nH]c(=O)c3ccccc23)ccc1F)N1CCN(C(=O)C2CC2)CC1 + CN1CCN(c2cc(C(=O)Nc3cc4cc(-c5cnn(C)c5)ccc4cn3)ccn2)CC1
- IC50 (second compound 0.0316 µM): > 10000 nM
- IC50 (second compound 0.1 µM): 6850 nM
- IC50 (second compound 0.316 µM): < 31.6 nM
- IC50 (second compound 1 µM): < 31.6 nM
- IC50 (second compound 3.16 µM): < 31.6 nM
- IC50 (second compound 10 µM): < 31.6 nM
- viability, T/C [1]: 101%
- viability, T/C [2]: 98.7%
- viability, T/C [13]: 87.9%
- viability, T/C [14]: 89.9%
- viability, T/C [15]: 78.6%
- viability, T/C [16]: 51.7%
- viability, T/C [3]: 73.5%
- viability, T/C [4]: 76.6%
- viability, T/C [17]: 87.8%
- viability, T/C [18]: 94.2%
- viability, T/C [19]: 76.6%
- viability, T/C [20]: 36.9%
- viability, T/C [5]: 16.7%
- viability, T/C [6]: 22.3%
- viability, T/C [21]: 15.1%
- viability, T/C [22]: 23.2%
- viability, T/C [23]: 16.8%
- viability, T/C [24]: 12.3%
- viability, T/C [7]: 0.11%
- viability, T/C [8]: 1.49%
- viability, T/C [25]: 0.2%
- viability, T/C [26]: 1.01%
- viability, T/C [27]: 0.08%
- viability, T/C [28]: 1.87%
- viability, T/C [9]: 1.24%
- viability, T/C [10]: 0.11%
- viability, T/C [29]: 1.32%
- viability, T/C [30]: 0.09%
- viability, T/C [31]: 0.1%
- viability, T/C [32]: 0.09%
- viability, T/C [11]: 0.19%
- viability, T/C [12]: 0.11%
- viability, T/C [33]: 0.46%
- viability, T/C [34]: 0.66%
- viability, T/C [35]: 0.18%
- viability, T/C [36]: 0.19%
